Consider four molecules from patent US12612644B2, “Scalable method for recombinant AAV production” (REGENXBIO Inc., priority 2018, dated 2026).

The subject of data set [1] is HEK293 cells expressing AAV8 particles. Description: Large scale (50 liter) rAAV production using NaCl enhancer (Example 3). The data set is classed as cell-based, human. The settings on record: 50 liter culture; NaCl increased by 60 mM 24 hours post transfection. On the procedure: The effect of NaCl on rAAV yield was tested in 50 liter cultures of HEK293 cells expressing AAV8 particles encapsidating a transgene. HEK suspension cultures were grown using standard processes. Cells were diluted to ˜4×10e6 viable cells. The medium used included 100 mM NaCl. Cells were transfected 24 hours post dilution with a mixture of polyethylenimine and 3 plasmids encoding adeno-virus helper functions, transgene and AAV […]. 24 hours post transfection, sufficient NaCl was added to increase the final NaCl concentration by 60 mM. (i.e., the final NaCl concentration was ˜160 mM). Supernatant was harvested on day 4 post transfection. The processes yielded 1×10e+11 genome copy (GC)/ml and 9×10e+10. This is ˜2-fold higher than the yield of the same process without the increase in NaCl concentration following transfection.

The subject of data set [2] is HEK293 cells expressing rAAV9 particles. As to the kind of experiment: Effect of NaCl and/or sodium propionate on rAAV9 yield, microscale bioreactors (Example 5). The data set is classed as cell-based, human. The settings on record: effects of other conditions averaged. On the procedure: The effect of sodium chloride and sodium propionate (NaPr) (ThermoFisher Scientific) on rAAV yield in a suspension culture of HEK293 cells expressing rAAV9 particles encapsidating a transgene. HEK293 cells were seeded at 1×10e6 viable cell/ml density in advanced microscale bioreactors. The medium comprised 100 mM NaCl. At 48 hrs ECD (Elapsed Culture Duration), the cells were transfected with a mixture of polyethylenimine and 3 plasmids encoding adeno-virus helper functions, transgene and AAV 2/9 Rep/Cap. 4, 20, or 36 hours after transfection, NaCl, NaPr, anti-clump, EFC+, and/or Na valproate was added to the cultures. Conditions tested were 0, 30 mM and 60 mM NaCl, 0, 2 mM and 4 mM NaPr. Multiple conditions were tested using a Design of Experiment approach. The supernatant of the cultures was harvested at […], i.e., 5 days post-transfection. rAAV yields were obtained. […] Resulting titer improvement by adding NaCl and/or NaPr is shown in FIG. 3 where the effects of other tested conditions are averaged. […] The observed ˜2-fold increase is higher than what would be expected if the effect of NaPr and increased NaCl were additive.

In a further data set the test system is CHO cells. Particulars: cited from earlier work.
For data set [3], the system named is recombinant IgG production. The settings on record: alone; small culture conditions less than 50 L; cited from earlier work.

In the case of `[Cl-].[Na+]` [NaCl, sodium chloride], the “yield relative to the same process without the increase in NaCl concentration” value in data set [1] is given as around 2 fold. Moreover, the “increase in the titer” value in data set [2] (increased NaCl in the absence of sodium propionate) is recorded as around 1.2 fold.
As to `CCCC(=O)O` [butyric acid], in the data set on CHO cells, the cell growth entry is reported as “inhibited cell growth” and the “production of recombinant B-domain deleted factor VIII” value is listed as “enhanced production”.
On to `CCC(=O)O` [propionic acid], for which, in the data set with CHO cells, the “production of recombinant B-domain deleted factor VIII” value was “enhanced production”.
Turning to `CCC(=O)[O-].[Na+]` [sodium propionate], the “increase in the titer” value in data set [2] (2 mM sodium propionate in the absence of increased NaCl) is on record as around 1.5 fold. The “effect on recombinant IgG production” value in data set [3] is “no strong effect alone”.
